Key:
Experiment in all cases: relative viability (nuclei count vs DMSO), 5 days (fraction); higher = more cells survive
Shikonin + Palbociclib = compound: CC(C)=CC[C@@H](O)C1=CC(=O)c2c(O)ccc(O)c2C1=O [Shikonin] + CC(=O)c1c(C)c2cnc(Nc3ccc(N4CCNCC4)cn3)nc2n(C2CCCC2)c1=O [Palbociclib] (partner 0.5 µM)
Procedure, shortened: (§1)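 Lung cancer cell lines were pin-tool dosed in 1536-well plates on the day after seeding, with either a lone drug or a fixed anchor-drug dose plus five library-drug doses (not always all listed) in √10 steps. Nuclei were counted on 4× images after 5 days. Relative viability is the ratio of treated-well to vehicle-well nuclei counts, with each value a median of duplicate plates.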

Shikonin + Lapatinib = compound: CC(C)=CC[C@@H](O)C1=CC(=O)c2c(O)ccc(O)c2C1=O [Shikonin] + CS(=O)(=O)CCNCc1ccc(-c2ccc3ncnc(Nc4ccc(OCc5cccc(F)c5)c(Cl)c4)c3c2)o1 [Lapatinib] (partner 2 µM)
Procedure, shortened: as §1

[1] = compound: CC(C)N(CCCNC(=O)Nc1ccc(C(C)(C)C)cc1)C[C@H]1O[C@@H](n2ccc3c(N)ncnc32)[C@H](O)[C@@H]1O + CCNC(=O)c1noc(-c2cc(C(C)C)c(O)cc2O)c1-c1ccc(CN2CCOCC2)cc1 [Luminespib] (partner 0.01 µM)
Procedure, shortened: as §1

[2] = compound: CC(C)N(CCCNC(=O)Nc1ccc(C(C)(C)C)cc1)C[C@H]1O[C@@H](n2ccc3c(N)ncnc32)[C@H](O)[C@@H]1O + Cc1cc(Nc2cc(N3CCN(C)CC3)nc(Sc3ccc(NC(=O)C4CC4)cc3)n2)n[nH]1 [Tozasertib] (partner 0.1 µM)
Procedure, shortened: as §1

Cell Line: UMC-11
- relative viability (Shikonin + Palbociclib; first compound 0.01 µM): 0.297
- relative viability (Shikonin + Palbociclib; first compound 0.1 µM): 0.351
- relative viability (Shikonin + Palbociclib; first compound 0.3162 µM): 0.335
- relative viability (Shikonin + Palbociclib; first compound 1 µM): 0.338
- relative viability (Shikonin + Lapatinib; first compound 0.01 µM): 1
- relative viability (Shikonin + Lapatinib; first compound 0.1 µM): 1.08
- relative viability (Shikonin + Lapatinib; first compound 0.3162 µM): 1
- relative viability (Shikonin + Lapatinib; first compound 1 µM): 1.12
- relative viability ([1]; first compound 0.08 µM): 1.01
- relative viability ([1]; first compound 0.253 µM): 0.992
- relative viability ([1]; first compound 0.8 µM): 0.915
- relative viability ([1]; first compound 2.53 µM): 1
- relative viability ([1]; first compound 8 µM): 0.977
- relative viability ([2]; first compound 0.08 µM): 0.185
- relative viability ([2]; first compound 0.253 µM): 0.193
- relative viability ([2]; first compound 0.8 µM): 0.231
- relative viability ([2]; first compound 2.53 µM): 0.218
- relative viability ([2]; first compound 8 µM): 0.175

From the supplement of paper PMC10307832
